According to patent US20250059198A1, “BRM DEGRADING COMPOUNDS AND ASSOCIATED METHODS OF USE” (Arvinas Operations, Inc., priority 2021, published 2025):

Target: T1, BRM (Homo sapiens, UniProt P51531)
T1 construct: Western Blot Screen of BRM Degradation in SW1573 Cells; endogenous in cells; host or cells: SW1573 cells
Test: BRM degradation (Dmax and DC50) in SW1573 cells, Western blot screen / In-Cell Western screen
Format: cell-based
Conditions: overnight (18-20 hours) treatment; for Dmax: read-out: Dmax (%)** (% degraded)
Procedure, shortened: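 Dmax and DC50 were derived from BRM levels normalised to an alpha-tubulin control, measured by chemiluminescent Western blotting of lysates or by PFA-fixed In-Cell Western on LI-COR Odyssey. SW1573 cells received compound overnight (18–20 h, 0.1% DMSO final).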

T1 sequence (P51531 whole entry): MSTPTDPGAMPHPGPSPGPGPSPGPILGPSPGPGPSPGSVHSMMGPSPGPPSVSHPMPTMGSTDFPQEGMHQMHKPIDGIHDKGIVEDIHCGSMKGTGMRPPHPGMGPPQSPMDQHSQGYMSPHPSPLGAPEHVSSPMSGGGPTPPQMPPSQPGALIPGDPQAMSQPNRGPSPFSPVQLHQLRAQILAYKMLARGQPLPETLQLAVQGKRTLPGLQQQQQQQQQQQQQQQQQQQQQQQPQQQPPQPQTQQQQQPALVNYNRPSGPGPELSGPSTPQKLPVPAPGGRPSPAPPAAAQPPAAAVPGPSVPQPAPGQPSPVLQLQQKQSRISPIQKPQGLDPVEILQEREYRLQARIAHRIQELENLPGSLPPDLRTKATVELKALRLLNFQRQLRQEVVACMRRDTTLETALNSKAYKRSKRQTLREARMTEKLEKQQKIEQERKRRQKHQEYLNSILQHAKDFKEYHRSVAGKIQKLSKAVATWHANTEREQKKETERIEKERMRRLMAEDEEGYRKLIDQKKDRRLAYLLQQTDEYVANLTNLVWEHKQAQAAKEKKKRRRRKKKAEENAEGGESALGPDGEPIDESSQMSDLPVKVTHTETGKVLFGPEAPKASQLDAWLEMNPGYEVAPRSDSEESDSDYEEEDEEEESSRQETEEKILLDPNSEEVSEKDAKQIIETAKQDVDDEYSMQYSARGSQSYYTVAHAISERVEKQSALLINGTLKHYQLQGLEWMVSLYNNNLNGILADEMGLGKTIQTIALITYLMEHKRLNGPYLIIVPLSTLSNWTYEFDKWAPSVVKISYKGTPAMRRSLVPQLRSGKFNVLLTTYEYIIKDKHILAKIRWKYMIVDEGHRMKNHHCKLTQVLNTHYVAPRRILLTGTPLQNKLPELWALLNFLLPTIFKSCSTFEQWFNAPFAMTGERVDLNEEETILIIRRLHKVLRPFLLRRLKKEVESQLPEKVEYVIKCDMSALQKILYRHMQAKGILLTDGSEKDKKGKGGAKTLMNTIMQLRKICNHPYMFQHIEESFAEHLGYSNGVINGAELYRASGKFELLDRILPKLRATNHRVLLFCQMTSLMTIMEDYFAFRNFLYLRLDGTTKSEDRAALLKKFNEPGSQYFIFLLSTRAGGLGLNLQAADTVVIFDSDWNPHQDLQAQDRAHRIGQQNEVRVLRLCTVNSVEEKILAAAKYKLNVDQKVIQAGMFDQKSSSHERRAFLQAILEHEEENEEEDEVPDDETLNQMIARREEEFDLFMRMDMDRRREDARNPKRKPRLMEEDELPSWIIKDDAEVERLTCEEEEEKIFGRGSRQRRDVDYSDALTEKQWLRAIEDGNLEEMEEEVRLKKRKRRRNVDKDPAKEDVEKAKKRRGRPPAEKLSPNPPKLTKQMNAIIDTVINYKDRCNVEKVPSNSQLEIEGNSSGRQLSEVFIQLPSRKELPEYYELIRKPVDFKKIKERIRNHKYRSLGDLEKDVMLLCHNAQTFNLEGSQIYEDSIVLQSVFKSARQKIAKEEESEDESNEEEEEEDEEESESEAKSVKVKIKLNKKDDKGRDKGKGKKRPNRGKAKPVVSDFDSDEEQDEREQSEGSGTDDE

Structure (SMILES)	DC50	Dmax
CC(C)[C@@H](C(=O)N1C[C@H](O)C[C@H]1C(=O)N[C@@H](C)c1ccc(-c2scnc2C#CCOCCOCCOCCOCCOc2cc(N3C4CCC3CN(c3cc(-c5ccccc5O)nnc3N)C4)ccn2)cc1)N1Cc2ccccc2C1=O [Compound 83, (2S,4R)-N-[(1S)-1-[4-(4-{1-[(4-{3-[3-amino-6-(2-hydroxyphenyl)pyridazin-4-yl]-3,8-diazabicyclo[3.2.1]octan-8-yl}pyridin-2-yl)oxy]-3,6,9,12-tetraoxapentadec-14-yn-15-yl}-1,3-thiazol-5-yl)phenyl]ethyl]-4-hydroxy-1-[(2S)-3-methyl-2-(1-oxo-2,3-dihydro-1H-isoindol-2-yl)butanoyl]pyrrolidine-2-carboxamide]	≥ 30 nM	
Cc1ncsc1-c1ccc([C@H](C)NC(=O)[C@@H]2C[C@@H](O)CN2C(=O)[C@@H](c2cc(N3CCC(CN4CCC5(CC4)CC(N4CCO[C@@H](C(=O)N6C7CCC6CN(c6cc(-c8ccccc8O)nnc6N)C7)C4)C5)CC3)no2)C(C)C)cc1 [Compound 62, (2S,4R)-1-[(2R)-2-{3-[4-({2-[(2R)-2-{3-[3-amino-6-(2-hydroxyphenyl)pyridazin-4-yl]-3,8-diazabicyclo[3.2.1]octane-8-carbonyl}morpholin-4-yl]-7-azaspiro[3.5]nonan-7-yl}methyl)piperidin-1-yl]-1,2-oxazol-5-yl}-3-methylbutanoyl]-4-hydroxy-N-[(1S)-1-[4-(4-methyl-1,3-thiazol-5-yl)phenyl]ethyl]pyrrolidine-2-carboxamide]	< 2.5 nM	> 75%
Cc1ncsc1-c1ccc([C@H](CC(=O)N2CCC(CN3CCC(O[C@H]4C[C@H](Oc5cc(N6C7CCC6CN(c6cc(-c8ccccc8O)nnc6N)C7)ccn5)C4)CC3)CC2)NC(=O)[C@@H]2C[C@@H](O)CN2C(=O)[C@H](C(C)C)N2Cc3ccccc3C2=O)cc1 [Compound 38, (2S,4R)-4-hydroxy-N-[(1S)-1-[4-(4-methyl-1,3-thiazol-5-yl)phenyl]-3-oxo-3-[4-({4-[(1r,3r)-3-[(4-{3-[3-amino-6-(2-hydroxyphenyl)pyridazin-4-yl]-3,8-diazabicyclo[3.2.1]octan-8-yl}pyridin-2-yl)oxy]cyclobutoxy]piperidin-1-yl}methyl)piperidin-1-yl]propyl]-1-[(2S)-3-methyl-2-(1-oxo-2,3-dihydro-1H-isoindol-2-yl)butanoyl]pyrrolidine-2-carboxamide]	< 2.5 nM	> 75%
CC(C)[C@@H](C(=O)N1C[C@H](O)C[C@H]1C(=O)N[C@@H](C)c1ccc(C#N)cc1)c1cc(N2CCC(OCCN3CCC(Oc4cc(N5CCN(c6cc(-c7ccccc7O)nnc6N)CC5)ccn4)CC3)CC2)no1 [Compound 155, (2S,4R)-1-[(2R)-2-{3-[4-(2-{4-[(4-{4-[3-amino-6-(2-hydroxyphenyl)pyridazin-4-yl]piperazin-1-yl}pyridin-2-yl)oxy]piperidin-1-yl}ethoxy)piperidin-1-yl]-1,2-oxazol-5-yl}-3-methylbutanoyl]-N-[(1S)-1-(4-cyanophenyl)ethyl]-4-hydroxypyrrolidine-2-carboxamide]	10 to 30 nM	> 75%
Cc1ncsc1-c1ccc([C@H](C)NC(=O)[C@@H]2C[C@@H](O)CN2C(=O)[C@@H](c2cc(N3CCC(CN4CCC(O[C@H]5C[C@H](N6CCC(C(C)c7cn(-c8cc(-c9ccccc9O)nnc8N)cn7)CC6)C5)CC4)CC3)no2)C(C)C)cc1 (stereo partly drawn) [Compound 85, (2S,4R)-4-hydroxy-N-[(1S)-1-[4-(4-methyl-1,3-thiazol-5-yl)phenyl]ethyl]-1-[(2R)-3-methyl-2-{3-[4-({4-[(1r,3r)-3-[4-(1-{1-[3-amino-6-(2-hydroxyphenyl)pyridazin-4-yl]-1H-imidazol-4-yl}ethyl)piperidin-1-yl]cyclobutoxy]piperidin-1-yl}methyl)piperidin-1-yl]-1,2-oxazol-5-yl}butanoyl]pyrrolidine-2-carboxamide]	≥ 30 nM	
Cc1ncsc1-c1ccc([C@H](C)NC(=O)[C@@H]2C[C@@H](O)CN2C(=O)[C@@H](c2cc(N3CCC(CN4CCC(O[C@H]5C[C@H](N6CCC(C(C)n7ncc(-c8cc(-c9ccccc9O)nnc8N)c7F)CC6)C5)CC4)CC3)no2)C(C)C)cc1 (stereo partly drawn) [Compound 100, (2S,4R)-4-hydroxy-N-[(1S)-1-[4-(4-methyl-1,3-thiazol-5-yl)phenyl]ethyl]-1-[(2R)-3-methyl-2-{3-[4-({4-[(1r,3r)-3-[4-(1-{4-[3-amino-6-(2-hydroxyphenyl)pyridazin-4-yl]-5-fluoro-1H-pyrazol-1-yl}ethyl)piperidin-1-yl]cyclobutoxy]piperidin-1-yl}methyl)piperidin-1-yl]-1,2-oxazol-5-yl}butanoyl]pyrrolidine-2-carboxamide]	< 2.5 nM	> 75%
CC(C)[C@@H](C(=O)N1C[C@H](O)C[C@H]1C(=O)N[C@@H](C)c1ccc(C#N)cc1)c1cc(N2CCC(CN3CC[C@H](Oc4cc(N5C6CCC5CN(c5cc(-c7ccccc7O)nnc5N)C6)ccn4)[C@H](F)C3)CC2)no1 [Compound 156, (2S,4R)-1-[(2R)-2-[3-(4-{[(3R,4S)-4-[(4-{3-[3-amino-6-(2-hydroxyphenyl)pyridazin-4-yl]-3,8-diazabicyclo[3.2.1]octan-8-yl}pyridin-2-yl)oxy]-3-fluoropiperidin-1-yl]methyl}piperidin-1-yl)-1,2-oxazol-5-yl]-3-methylbutanoyl]-N-[(1S)-1-(4-cyanophenyl)ethyl]-4-hydroxypyrrolidine-2-carboxamide]	< 2.5 nM	> 75%
CC(C)[C@@H](C(=O)N1C[C@H](O)C[C@H]1C(=O)N[C@@H](C)c1ccc(C#N)cc1)c1cc(N2CCC(CN3CCC(O[C@H]4C[C@H](Oc5cc(N6CC7CCC(C6)N7c6cc(-c7ccccc7O)nnc6N)ccn5)C4)CC3)CC2)no1 [Compound 15, (2S,4R)-N-[(1S)-1-(4-cyanophenyl)ethyl]-4-hydroxy-1-[(2R)-3-methyl-2-{3-[4-({4-[(1r,3r)-3-[(4-{8-[3-amino-6-(2-hydroxyphenyl)pyridazin-4-yl]-3,8-diazabicyclo[3.2.1]octan-3-yl}pyridin-2-yl)oxy]cyclobutoxy]piperidin-1-yl}methyl)piperidin-1-yl]-1,2-oxazol-5-yl}butanoyl]pyrrolidine-2-carboxamide]	2.5 to 10 nM	> 75%
CC(C)[C@@H](C(=O)N1C[C@H](O)C[C@H]1C(=O)N[C@@H](C)c1ccc(C#N)cc1)c1cc(N2CCC(CN3CC[C@@H](Oc4cc(N5C6CCC5CN(c5cc(-c7ccccc7O)nnc5N)C6)ccn4)[C@@H](F)C3)CC2)no1 [Compound 157, (2S,4R)-1-[(2R)-2-[3-(4-{[(3S,4R)-4-[(4-{3-[3-amino-6-(2-hydroxyphenyl)pyridazin-4-yl]-3,8-diazabicyclo[3.2.1]octan-8-yl}pyridin-2-yl)oxy]-3-fluoropiperidin-1-yl]methyl}piperidin-1-yl)-1,2-oxazol-5-yl]-3-methylbutanoyl]-N-[(1S)-1-(4-cyanophenyl)ethyl]-4-hydroxypyrrolidine-2-carboxamide]	< 2.5 nM	> 75%
Cc1ncsc1-c1ccc([C@H](C)NC(=O)[C@@H]2C[C@@H](O)CN2C(=O)[C@H](c2cc(N3CCC(OC(=O)N4CCC(Oc5cc(N6C7CCC6CN(c6cc(-c8ccccc8O)nnc6N)C7)ccn5)CC4)CC3)no2)C(C)C)cc1 [Compound 131, 1-(5-((S)-1-((2S,4R)-4-hydroxy-2-(((S)-1-(4-(4-methylthiazol-5-yl)phenyl)ethyl)carbamoyl)pyrrolidin-1-yl)-3-methyl-1-oxobutan-2-yl)isoxazol-3-yl)piperidin-4-yl 4-((4-(3-(3-amino-6-(2-hydroxyphenyl)pyridazin-4-yl)-3,8-diazabicyclo[3.2.1]octan-8-yl)pyridin-2-yl)oxy)piperidine-1-carboxylate]	≥ 30 nM	
CC(C)[C@H](C(=O)N1C[C@H](O)C[C@H]1C(=O)N[C@@H](C)c1ccc(C#N)cc1)c1cc(N2CCC(OCCN3CCC(Oc4cc(N5CCN(c6cc(-c7ccccc7O)nnc6N)CC5)ccn4)CC3)CC2)no1 [Compound 154, (2S,4R)-1-[(2S)-2-{3-[4-(2-{4-[(4-{4-[3-amino-6-(2-hydroxyphenyl)pyridazin-4-yl]piperazin-1-yl}pyridin-2-yl)oxy]piperidin-1-yl}ethoxy)piperidin-1-yl]-1,2-oxazol-5-yl}-3-methylbutanoyl]-N-[(1S)-1-(4-cyanophenyl)ethyl]-4-hydroxypyrrolidine-2-carboxamide]	≥ 30 nM	
Cc1ncsc1-c1ccc([C@H](C)NC(=O)[C@@H]2C[C@@H](O)CN2C(=O)[C@@H](c2cc(N3CCC(CN4CCC(O[C@H]5C[C@H](N6CCN(CC7C8CCC7CN(c7cc(-c9ccccc9O)nnc7N)C8)CC6)C5)CC4)CC3)no2)C(C)C)cc1 (stereo partly drawn) [Compound 47, (2S,4R)-4-hydroxy-N-[(1S)-1-[4-(4-methyl-1,3-thiazol-5-yl)phenyl]ethyl]-1-[(2R)-3-methyl-2-{3-[4-({4-[(1r,3r)-3-[4-({3-[3-amino-6-(2-hydroxyphenyl)pyridazin-4-yl]-3-azabicyclo[3.2.1]octan-8-yl}methyl)piperazin-1-yl]cyclobutoxy]piperidin-1-yl}methyl)piperidin-1-yl]-1,2-oxazol-5-yl}butanoyl]pyrrolidine-2-carboxamide]	2.5 to 10 nM	> 75%
Cc1ncsc1-c1ccc([C@H](C)NC(=O)[C@@H]2C[C@@H](O)CN2C(=O)[C@@H](c2cc(N3CCC(CN4CCC5(CC4)CC(CN4CCC(Oc6cc(N7C8CCC7CN(c7cc(-c9ccccc9O)nnc7N)C8)ccn6)CC4)C5)CC3)no2)C(C)C)cc1 [Compound 32, (2S,4R)-1-[(2R)-2-[3-(4-{[2-({4-[(4-{3-[3-amino-6-(2-hydroxyphenyl)pyridazin-4-yl]-3,8-diazabicyclo[3.2.1]octan-8-yl}pyridin-2-yl)oxy]piperidin-1-yl}methyl)-7-azaspiro[3.5]nonan-7-yl]methyl}piperidin-1-yl)-1,2-oxazol-5-yl]-3-methylbutanoyl]-4-hydroxy-N-[(1S)-1-[4-(4-methyl-1,3-thiazol-5-yl)phenyl]ethyl]pyrrolidine-2-carboxamide]	< 2.5 nM	> 75%
